Laboratory results taken from patent US20100196321A1, “COMPOUNDS” (GLAXOSMITHKLINE LLC, priority 2009, published 2010).

Columns and labels:
[1] = tested on: HCV mutant replicon D168A; assay: HCV PI Transient Replicon Assay, D168A; assay type: cell-based; settings: Hepatitis C virus, 72 h, read-out: D168A EC50 values (nM)
Text: (§1) A model system for HCV RNA replication is a cell based assay using subgenomic or genomic HCV replicons containing HCV genes and possibly a selectable and/or screenable marker. […] The HCV PI transient replicons assay was derived from two publications ([…]; J Virol 75, 12047, 2001). In this assay, the target cells were “ET Cured cells”, a cell line generated by treating ET replicons cells (RebliKon) with Interferon a for several passages until the HCV genome was cleared. Other modifications to the published protocol included 1) cells were transfected in PBS and 2) were treated for 72 hours with compounds. Data from dose responses was analyzed using BioAssay. EC50 values were generated by plotting percent inhibition against compound concentration. The various HCV mutant replicons were generated by standard molecular biology techniques and confirmed by sequencing.

[2] = tested on: HCV mutant replicon A156V; assay: HCV PI Transient Replicon Assay, A156V; assay type: cell-based; settings: Hepatitis C virus, 72 h, read-out: A156V EC50 values (nM)
Text: as §1

[3] = tested on: HCV mutant replicon R155K; assay: HCV PI Transient Replicon Assay, R155K; assay type: cell-based; settings: Hepatitis C virus, 72 h, read-out: R155K EC50 values (nM)
Text: as §1

[4] = tested on: HCV mutant replicon A156S; assay: HCV PI Transient Replicon Assay, A156S; assay type: cell-based; settings: Hepatitis C virus, 72 h, read-out: A156S EC50 values (nM)
Text: as §1

[5] = tested on: HCV mutant replicon D168V; assay: HCV PI Transient Replicon Assay, D168V; assay type: cell-based; settings: Hepatitis C virus, 72 h, read-out: D168V EC50 values (nM)
Text: as §1

HCV replicon wt = assay: HCV PI Transient Replicon Assay, wt; assay type: cell-based; settings: Hepatitis C virus; ET Cured cells, 72 hours
Text: as §1

[6] = tested on: HCV mutant replicon A156T; assay: HCV PI Transient Replicon Assay, A156T; assay type: cell-based; settings: Hepatitis C virus, 72 h, read-out: A156T EC50 values (nM)
Text: as §1

[7] = tested on: HCV protease-resistant mutants; assay: HCV PI Transient Replicon Assay, profile over resistant mutants; assay type: cell-based; settings: e.g. A1566S, A156T, R155K, others
Text: as §1
Compounds of the invention are thought to be active against HCV protease-resistant mutants. […] EC50 values (nM) are shown below in Table 3.

[8] = biological target: HCV Genotype 1a NS3-4A Protease Domain (Hepatitis C virus genotype 1a, UniProt P27958, T1100M/T1173A); assay: Hepatitis C NS3 Protease FRET Assay (RET-S1); assay type: biochemical
Method: Hepatitis C NS3 Protease FRET Assay (RET-S1) Using the HCV Genotype 1a NS3-4A Protease Domain
Compounds were tested as inhibitors of HCV NS3-4A protease domain in 10 μl reactions which contained 50 mM HEPES pH 7.5, 20% sucrose, 0.05% NP40, 5 mM DTT, 1 μM 4A peptide ([…] that served as a cofactor and activated the enzyme in the assay) (prepared by standard synthetic methods), 5 μM RET S1 substrate (Ac-DED(EDANS)EEAbu ψ[COO] ASK(DABCYL)) and 1 nM NS3 protease domain. The RET S1 substrate (Ac-Asp-Glu-Asp(EDANS)-Glu-Glu-Abu-ψ-[COO]-Ala-Ser-Lys(DABCYL)-NH2) was purchased from Anaspec, Inc. (Taliani et. al, 1996, Anal Biochem). “ψ-[COO]” refers to the location of the ester bond within the molecule
Cleavage of the substrate, which is based on the natural NS4A/NS4B junction (DEMEECASHL), was monitored by measuring the increase in fluorescence with 355 nm excitation/495 nm emission in a Molecular Devices SpectraMax Gemini plate reader. Compounds were dissolved in DMSO and tested at 10 μM in duplicate or in dose response curves with usually 10 μM top concentration and 3-fold dilutions. The maximum level of DMSO was 5%. The standard compound in the assay was the compound BILN-2061 (Lamarre at al., (2003) Nature, 426, 186-189).

[9] = tested on: sub-genomic HCV NS3-NS5B replicon of genotype 1b (ET subline) in Huh-7 cells; assay: Replicon Luciferase Cell Based Assay, genotype 1b; parameters: species or system HCV genotype 1b; settings: Hepatitis C virus, Huh-7, 48 h, read-out: Genotype 1b (IC50 μM)
In short: (§2)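 5,000 luciferase-replicon cells per well in DMEM with 5% FCS were exposed to 1:3 compound dilutions for 48 h at 37 °C. Firefly luciferase (Steady-Glo) was read, with CellTiter-Glo on duplicate plates for cytotoxicity; background-subtracted signal as % of compound-free control gave IC50.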

[10] = tested on: sub-genomic HCV NS3-NS5B replicon of genotype 1a in Huh-7 cells; assay: Replicon Luciferase Cell Based Assay, genotype 1a; parameters: species or system HCV genotype 1a; settings: Hepatitis C virus, Huh-7, 48 hours
In short: as §2

Structure (SMILES) | EC50 [1] | EC50 [2] | EC50 [3] | EC50 [4] | EC50 [5] | EC50 (HCV replicon wt) | EC50 [6] | profile against resistant mutants compared with other HCV PI inhibitors ITMN-191 and TMC-435350 [7] | IC50 [8] | IC50 [9] | IC50 [10]
CC(C)(C)OC(=O)N[C@H]1CCCCC/C=C\[C@@H]2C[C@@]2(C(=O)NS(=O)(=O)C2CC2)NC(=O)[C@@H]2C[C@@H](OC(=O)N3Cc4cccc(F)c4C3)CN2C1=O [ITMN-191] | 54.4 nM | 11.9 nM | 109 nM | 1.64 nM | 33.1 nM | 0.07 nM | 6.46 nM | – | – | – | –
COc1ccc2c(O[C@@H]3C[C@H]4C(=O)N[C@]5(C(=O)NS(=O)(=O)C6CC6)C[C@H]5/C=C\CCCCN(C)C(=O)[C@@H]4C3)cc(-c3nc(C(C)C)cs3)nc2c1C [TMC-435350] | 161 nM | 36.3 nM | 58.9 nM | 0.28 nM | 43.7 nM | 0.87 nM | 57.5 nM | – | – | – | –
COc1ccc2c(O[C@@H]3C[C@H]4C(=O)N[C@]5(C(=O)NS(=O)(=O)C6CC6)C[C@H]5/C=C\CCCCC[C@H](NC(=O)N5CCCCC5)C(=O)N4C3)cc(-c3nc(C(C)C)cs3)nc2c1C [Example 16, (2R,6S,13aS,14aR,16aS)-N-(cyclopropylsulfonyl)-2-{[8-methyl-2-[4-(1-methylethyl)-1,3-thiazol-2-yl]-7-(methyloxy)-4-quinolinyl]oxy}-5,16-dioxo-6-[(1-piperidinylcarbonyl)amino]-1,2,3,6,7,8,9,10,11,13a,14,15,16,16a-tetradecahydrocyclopropa[e]pyrrolo[1,2-a][1,4]diazacyclopentadecine-14a(5H)-carboxamide] | 24.8 nM | 7.17 nM | 6.93 nM | 0.07 nM | 80.6 nM | 0.04 nM | 1.95 nM | improved profile | 5 nM | < 0.01 µM | < 0.01 µM
CCN(CC)C(=O)N[C@H]1CCCCC/C=C\[C@@H]2C[C@@]2(C(=O)NS(=O)(=O)C2CC2)NC(=O)[C@@H]2C[C@@H](Oc3cc(-c4nc(C5CC5)cs4)nc4c(Cl)c(OC)ccc34)CN2C1=O [Example 4, (2R,6S,13aS,14aR,16aS,Z)-2-(8-chloro-2-(4-cyclopropylthiazol-2-yl)-7-methoxyquinolin-4-yloxy)-N-(cyclopropylsulfonyl)-6-(3,3-diethylureido)-5,16-dioxo-1,2,3,5,6,7,8,9,10,11,13a,14,14a,15,16,16a-hexadecahydrocyclopropa[e]pyrrolo[1,2-a][1,4]diazacyclopentadecine-14a-carboxamide] | – | – | – | – | – | – | – | – | – | < 0.01 µM | < 0.01 µM
